Results from ChEMBL document CHEMBL1141845, “A new bistetrahydrofuran acetogenin from the roots of Annona salzmanii” (J Nat Prod, 1999).

Experiments:
KB = experiment: Cytotoxicity against human KB cells; format: functional
[1] = Cytotoxicity against african green monkey Vero cells; format: cell-based; conditions: chlorocebus sabaeus, read-out: ED50 (the source's name)

| Compound | ED50 (KB) | CC50 [1] |
| --- | --- | --- |
| CCCCCC[C@H](O)CCC[C@H](O)[C@H]1CC[C@@H]([C@H]2CC[C@H]([C@H](O)CC[C@H](O)CCCCCCCCCC3=C[C@H](C)OC3=O)O2)O1 [SALZMANIN] | 0.1 ×10⁻⁴ ug/ml | > 0.01 µg/mL |
| CCCCCC[C@H](O)CCC[C@H](O)[C@H]1CC[C@H]([C@H]2CC[C@H]([C@H](O)CCCCCCCCCCCCC3=C[C@H](C)OC3=O)O2)O1 [SQUAMOCIN] | 4 ×10⁻⁴ ug/ml | – |
| CC[C@]1(O)C[C@@H]2CN(CCc3c([nH]c4ccccc34)[C@@](C(=O)OC)(c3cc4c(cc3OC)N(C)[C@H]3[C@@](O)(C(=O)OC)[C@H](OC(C)=O)[C@]5(CC)C=CCN6CC[C@]43[C@@H]65)C2)C1 [VINBLASTINE] | 0.1 ×10⁻⁴ ug/ml | – |
